Patent US20030232834A1, “Combination therapy for the prophylaxis and treatment of hyperlipidemic conditions and disorders” (priority 2002, published 2003)

Columns and labels:
Male beagle dogs = test: Serum triglyceride in beagle dogs; type: in vivo, dog; details: pravastatin 10 mg/kg/day dosed Weeks 1-11; Week 10; mean ± SEM, n=6
Experimental: Following this initial four week dose-ranging study, dogs from the two groups receiving 10 mg/kg/day pravastatin (a.m. and p.m. dosing groups) were randomized into two new treatment groups based on serum total cholesterol levels to initiate the combination treatment study. One group received an empty capsule (a.m. dosing) and 10 mg/kg/day pravastatin (p.m. dosing) and the other received 4.0 mg/kg/day compound A-5 (a.m. dosing) and 10 mg/kg/day pravastatin (p.m. dosing). A third group that had received empty capsules (vehicle) in the dose-ranging study was used for compound A-5 monotherapy and was administered 4.0 mg/kg/day compound A-5 (a.m. dosing) and an empty capsule (p.m. dosing). […]
Blood was collected from the cephalic vein of each dog into serum separator tubes. […] Commercial calibrator and quality control materials were analyzed with each run to verify assay accuracy and precision. […]
Serum lipid measurements were obtained as described in Example 3 above except that blood was collected from either the cephalic or jugular vein of each dog into serum separator tubes and the blood was centrifuged at 2000 rpm for 20 minutes. Table X-4A below reports the data measured on the effect of the compound A-5/pravastatin combination therapy on serum total cholesterol. […]

[1] = Water uptake experiments (Dynamic Vapor Sorption); type: physicochemical; details: equilibrated under 80% relative humidity (RH) air at 25° C.
Experimental: A dry sample of the crystalline form having a melting point or a decomposition point of about 278° C. to about 285° C. (i.e., Form II) typically gains less than about 1% of its own weight when equilibrated under 80% relative humidity (RH) air at 25° C. […] For the present purposes, the term “essentially 0% RH” means less than about 1% RH. The term “equilibrated” means that the change in weight of a sample over time at a given relative humidity is less than 0.0003% ((dm/dt)/m0×100, where m is mass in mg, m0 is initial mass, and t is time in minutes).
Water sorption experiments are performed on a Dynamic Vapor Sorption (DVS) apparatus (DVS-1000 manufactured by Surface Measurements Systems, Inc.). Experiments are performed at 25° C. by initially drying the material of interest (about 10 mg sample) from 30% relative humidity (RH) (ambient room condition) to about 9% RH in a stepwise fashion (10% RH step) by purging with dry nitrogen until no further weight change was observed. The samples are then exposed to a stepwise (10% RH steps) increase in RH from about 0 to about 90% RH. Each successive step is initiated when the change in weight over time at the relative humidity was less than 0.0003% ((dm/dt)/m0×100, where m is mass in mg, m0 is initial mass, and t is time in minutes). […] The data are collected on a computer and analyzed using SMS' proprietary MS-Excel macro interface software.

weight gain of a dry sample (of its own weight) [1]	Compound	TOTAL SERUM TRIGLYCERIDE (Male beagle dogs) [mg/dL]
–	CC[C@H](C)C(=O)O[C@H]1C[C@H](O)C=C2C=C[C@H](C)[C@H](CC[C@@H](O)C[C@@H](O)CC(=O)O)[C@H]21 [pravastatin, Pravastatin]	43 ± 5
less than 1%	CCCCC1(CCCC)CS(=O)(=O)c2ccc(N(C)C)cc2[C@@H](c2ccc(OCc3ccc(C[N+]45CCN(CC4)CC5)cc3)cc2)[C@H]1O.[Cl-] [Form II, (4R,5R)-1-((4-(4-(3,3-dibutyl-7-(dimethylamino)-2,3,4,5-tetrahydro-4-hydroxy-1,1-dioxido-1-benzithiepin-5-yl)phenoxy)methyl)phenyl)methyl-4-aza-1-azoniabicyclo[2.2.2]octane chloride]	–
